{"source": "patent US20120264684A1", "about": "“Glycosylated Form of Antigenic GLP-1 Analogue” (priority 2009, published 2012)", "key": {"[1]": {"biological_target": "albumin (Homo sapiens, UniProt P02768)", "sequence (P02768 25-609)": "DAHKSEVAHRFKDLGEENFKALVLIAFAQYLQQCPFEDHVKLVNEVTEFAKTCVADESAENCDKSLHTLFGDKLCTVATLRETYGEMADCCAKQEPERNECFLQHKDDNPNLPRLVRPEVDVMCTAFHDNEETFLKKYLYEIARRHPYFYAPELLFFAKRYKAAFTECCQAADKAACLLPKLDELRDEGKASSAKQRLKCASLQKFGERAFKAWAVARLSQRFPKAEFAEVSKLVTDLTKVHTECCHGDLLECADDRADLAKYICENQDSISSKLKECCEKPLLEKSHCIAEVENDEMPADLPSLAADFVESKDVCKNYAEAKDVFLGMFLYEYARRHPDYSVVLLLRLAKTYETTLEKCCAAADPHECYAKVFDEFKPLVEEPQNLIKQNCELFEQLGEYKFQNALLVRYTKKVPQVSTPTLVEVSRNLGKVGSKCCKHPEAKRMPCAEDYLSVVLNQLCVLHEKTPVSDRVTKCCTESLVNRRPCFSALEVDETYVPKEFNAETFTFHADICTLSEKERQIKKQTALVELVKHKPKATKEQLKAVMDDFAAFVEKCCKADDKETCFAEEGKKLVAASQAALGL", "conditions": "background art; cited from earlier work"}, "[2]": {"tested_on": "BKS.Cg-+Leprdb/+Leprdb/Jc1 mice", "assay": "Blood glucose lowering action of oligosaccharide chain added exendin-4 using db/db mice", "type": "in vivo", "conditions": "for blood glucose lowering action in db/db mice: 9 mmol/10 mL PBS, 10 mL/kg i.p., blood glucose at 30, 60, 120, 240 minutes", "procedure": "(§1) Blood glucose suppressing activity using db/db mice can be determined by measuring blood glucose after administration of a test compound to diabetic mice. Blood glucose after administration of the test compound is measured over time, and if for example, blood glucose 120 minutes after administration is lower than at the time of administration, blood glucose lowering action can be confirmed. For example, sustainability of blood glucose lowering action can also be determined by measuring blood glucose 300 minutes after administration.\nA PBS solution of position 30 Cys-disialooligosaccharide chain added exendin-4 synthesized in Example 1 ([…]/10 mL) was intraperitoneally administered to BKS.Cg-+Leprdb/+Leprdb/Jc1 mice (10 weeks old, male) at an administration dosage of 10 mL/kg. Orbital blood was collected before administration of the compound, as well as 30 minutes, 60 minutes, 120 minutes, and 240 minutes later, and blood glucose was measured using Accu-Chek Aviva (Roche Diagnostics).\nBlood glucose lowering action was compared with non-oligosaccharide chain added exendin-4 synthesized in Comparative Example 1."}, "[3]": {"tested_on": "C57BL/6JJcl mice", "assay": "Oral glucose tolerance test (OGTT) of oligosaccharide chain added exendin-4", "type": "in vivo", "conditions": "0.9 nmol/10 ml PBS, 10 ml/kg i.p., 30 minutes before oral glucose 1 mg/g, fasted C57BL/6JJcl mice, GLP-1 at 9 nmol/10 ml", "procedure": "(§2) Blood glucose suppressing activity by OGTT can be determined by measuring blood glucose elevation suppression when mice are force-fed sugar. For example, first, a test compound is administered to mice fasted overnight, and glucose solution is orally administered 30 minutes later. Blood glucose in mice will rise from the administration of glucose, reach maximum at about 30 minutes after administration, and then slowly decrease. The blood glucose suppressing action of the oligosaccharide, chain added antigenic GLP-1 analogue can be evaluated by measuring blood glucose 30 minutes after administration of glucose, and comparing it to blood glucose when non-oligosaccharide chain added antigenic GLP-1 analogue is administered. […] Orbital blood was collected before administration of glucose, as well as 30 minutes, 60 minutes, and 120 minutes after administration of glucose, and blood glucose was measured using Accu-Chek Aviva (Roche Diagnostics). Similarly, non-oligosaccharide chain added liraglutide was also administered to db/db mice, blood glucose was measured over time, and compared to the action of position 30 Cys-disialooligosaccharide chain added liraglutide."}, "[4]": {"tested_on": "balb/c mice", "conditions": "mouse, in vivo", "source_text": "The effect of glycosylation on the antigenicity of exendin was verified by sensitizing mice with non-oligosaccharide chain added exendin-4 or position 30 Cys-disialooligosaccharide chain added exendin-4, and comparing blood anti-exendin-4 antibody concentrations.\nAs priming immunization, position 30 Cys-disialooligosaccharide chain added exendin-4 synthesized in Example 1 and non-oligosaccharide chain added exendin-4 (American Peptide Company) were mixed well with Complete Freund's adjuvant (Difco Laboratories) to make emulsions, and intraperitoneally administered to balb/c mice (female, 7 weeks old). […]\nPlasma was collected from mice seven days after the boost immunization. The anti-exendin-4 antibody concentration in plasma was measured by Enzyme-Linked immunosorbent assay (ELISA) using commercially available anti-exendin-4 antibody (Antibodyshop) as the standard.\nFifty μg of non-oligosaccharide chain added exendin-4 was added to a 96-well ELISA plate, and incubated at 37° C. for 2 hours. […] The color development reaction was terminated by adding 20% SDS, and absorption at 405 nm was measured. The concentration of anti-exendin-4 antibody was determined using anti-exendin-4 monoclonal antibody as the standard."}, "[5]": {"tested_on": "C57BL/6JJcl mice", "assay": "Oral glucose tolerance test (OGTT) of oligosaccharide chain added liraglutide", "type": "in vivo", "conditions": "9 nmol/10 ml PBS, 10 ml/kg i.p., 30 minutes before oral glucose 1 mg/g, fasted C57BL/6JJcl mice", "procedure": "as §2, with “Diagnostics).” for “Diagnostics). Similarly, non-oligosaccharide chain added liraglutide was also administered to db/db mice, blood glucose was measured over time, and compared to the action of position 30 Cys-disialooligosaccharide chain added liraglutide.”"}, "[6]": {"tested_on": "BKS.Cg-+Leprdb/+Leprdb/Jc1 mice (db/db mice)", "assay": "Blood glucose lowering action of oligosaccharide chain added liraglutide using db/db mice", "type": "in vivo", "conditions": "for blood glucose lowering action in db/db mice: 9 nmol/10 mL PBS, 10 mL/kg i.p., blood glucose at 30 to 720 minutes", "procedure": "as §1, with “administration. […] Orbital blood was collected before administration of the compound, as well as 30 minutes, 60 minutes, 120 minutes, 240 minutes, 480 minutes, and 720 minutes later, and blood glucose was measured using Accu-Chek Aviva (Roche Diagnostics). Similarly, non-oligosaccharide chain added liraglutide was also administered to db/db mice, blood glucose was measured over time, and compared to the action of position 30 Cys-disialooligosaccharide chain added liraglutide.” for “administration.”"}, "[7]": {"conditions": "stated with the db/db mice test"}, "[8]": {"conditions": "listed as Oligosaccharide chain added exendin-4"}, "[9]": {"conditions": "listed as Oligosaccharide chain added liraglutide"}, "[10]": {"conditions": "listed as Position 30 Cys-disialooligosaccharide chain added liraglutide"}}, "note": "Entries after “also recorded” stand apart in the source; their conditions may differ."}
{"compound": "CCCCCCCCCCCCCCCC(=O)N[C@@H](CCC(=O)NCCCC[C@H](NC(=O)[C@H](C)NC(=O)[C@H](C)NC(=O)[C@H](CCC(N)=O)NC(=O)CNC(=O)[C@H](CCC(=O)O)NC(=O)[C@H](CC(C)C)NC(=O)[C@H](Cc1ccc(O)cc1)NC(=O)[C@H](CO)NC(=O)[C@H](CO)NC(=O)[C@@H](NC(=O)[C@H](CC(=O)O)NC(=O)[C@H](CO)NC(=O)[C@@H](NC(=O)[C@H](Cc1ccccc1)NC(=O)[C@@H](NC(=O)CNC(=O)[C@H](CCC(=O)O)NC(=O)[C@H](C)NC(=O)[C@@H](N)Cc1cnc[nH]1)[C@@H](C)O)[C@@H](C)O)C(C)C)C(=O)N[C@@H](CCC(=O)O)C(=O)N[C@@H](Cc1ccccc1)C(=O)N[C@H](C(=O)N[C@@H](C)C(=O)N[C@@H](Cc1c[nH]c2ccccc12)C(=O)N[C@@H](CC(C)C)C(=O)N[C@H](C(=O)N[C@@H](CCCNC(=N)N)C(=O)NCC(=O)N[C@@H](CCCNC(=N)N)C(=O)NCC(=O)O)C(C)C)[C@@H](C)CC)C(=O)O", "note": "[Liraglutide]", "values": [{"measurement": "administered amount that binds to albumin", "setting": "[1]", "value": "about 99%"}]}
{"compound": "Exendin-4", "values": [{"measurement": "blood glucose lowering action in db/db mice", "setting": "[2]", "value": "strong blood glucose lowering action 30 minutes after administration"}, {"measurement": "duration of blood glucose lowering effect in db/db mice", "setting": "[2]; i.p., 10 mL/kg, last sampling 240 minutes", "value": 240, "unit": "min"}, {"measurement": "blood stability", "setting": "[2]; [7]", "value": "high blood stability"}, {"measurement": "blood glucose elevation suppressive action (OGTT)", "setting": "[3]", "value": "blood glucose elevation suppressive action higher than vehicle (PBS only) and GLP-1"}]}
{"compound": "Position 30 Cys-DisialoOligosaccharide Chain Added Exendin-4", "values": [{"measurement": "blood glucose lowering action in db/db mice", "setting": "[2]; [8]", "value": "string blood glucose lowering action equal to non-oligosaccharide chain added exendin-4"}, {"measurement": "blood glucose lowering action in db/db mice", "setting": "[2]; listed as Position 30 Cys-disialooligosaccharide chain added exendin-4", "value": "blood glucose lowering action and sustainability equal to non-oligosaccharide chain added exendin-4"}, {"measurement": "blood glucose elevation suppressive action (OGTT)", "setting": "[3]; [8]", "value": "blood glucose elevation suppressive action equal to non-oligosaccharide chain added exendin-4"}, {"measurement": "plasma anti-exendin-4 antibody concentration / antibody titer compared to non-oligosaccharide chain added exendin-4", "setting": "[4]", "value": "about one-quarter"}]}
{"compound": "Position 30 Cys-DisialoOligosaccharide Chain Added Liraglutide", "values": [{"measurement": "blood glucose elevation suppressive action (OGTT)", "setting": "[5]", "value": "even higher blood glucose elevation suppressive action compared to non-oligosaccharide chain added liraglutide"}, {"measurement": "blood glucose elevation suppressive action (OGTT)", "setting": "[5]; [9]", "value": "blood glucose elevation suppressive action even higher than non-oligosaccharide chain added liraglutide"}, {"measurement": "blood glucose elevation suppressive action (OGTT)", "setting": "[5]; [10]", "value": "blood glucose elevation suppressive action higher than vehicle (PBS only) and GLP-1"}, {"measurement": "blood glucose lowering action in db/db mice", "setting": "[6]; [9]", "value": "blood glucose lowering action and sustainability equal to non-oligosaccharide chain added liraglutide"}, {"measurement": "blood glucose lowering action in db/db mice", "setting": "[6]; [10]", "value": "strong blood glucose lowering action 30 minutes after administration; also recorded: blood glucose lowering action and sustainability equal to non-oligosaccharide, chain added liraglutide"}, {"measurement": "duration of blood glucose lowering effect in db/db mice", "setting": "[6]; i.p., 10 mL/kg, last sampling 720 minutes", "value": 12, "unit": "h"}, {"measurement": "blood stability", "setting": "[6]; [7]", "value": "high blood stability"}]}
